Measurements reported in the supplement of paper PMC10307832.

Key:
Experiment in all cases: relative viability (nuclei count vs DMSO), 5 days (fraction); higher = more cells survive
[1] = compound: C1CNCCC1C2=CC(=NN2)C3=CC=NC=C3
Method in brief: (§1)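 Acceptance criteria were a control CV below 25% and at least one doubling per plate. Lung cancer cell lines in 1536-well plates got five library-drug doses (not always all listed) √10 apart by pinning and were left 5 days with no medium change. Viability divides treated-well nuclei by vehicle-well nuclei and is the median across plates. Nuclei were counted by MetaXpress from 4× Hoechst images.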

[2] = compound: C[C@@H](N)c1ccc(C(=O)Nc2ccnc3[nH]ccc23)cc1
Method in brief: as §1

Tanzisertib = compound: O[C@H]1CC[C@H](Nc2ncc3nc(Nc4c(F)cc(F)cc4F)n([C@H]4CCOC4)c3n2)CC1 [Tanzisertib]
Method in brief: as §1

Cell Line	relative viability ([1]; 0.08 µM)	relative viability ([1]; 0.8 µM)	relative viability ([1]; 2.53 µM)	relative viability ([1]; 8 µM)	relative viability ([2]; 0.04 µM)	relative viability ([2]; 0.1265 µM)	relative viability ([2]; 0.4 µM)	relative viability ([2]; 1.265 µM)	relative viability ([2]; 4 µM)	relative viability (Tanzisertib; 0.08 µM)	relative viability (Tanzisertib; 0.253 µM)	relative viability (Tanzisertib; 0.8 µM)	relative viability (Tanzisertib; 2.53 µM)	relative viability (Tanzisertib; 8 µM)
NCI-H1944	0.903	0.964	0.987	1.01	1.01	0.987	1.02	0.822	0.793	1.14	0.966	0.971	1	0.86
NCI-H1975	0.969	0.873	0.998	0.964	0.838	0.875	0.942	0.72	0.602	0.935	1.02	0.934	0.955	0.874
NCI-H1993	0.889	0.911	0.978	1.02	0.989	1.1		0.9	0.996	1.06	0.952	0.969	0.822	0.786
NCI-H2009	1.03	1.07	1.07	1	0.978	1.02	0.958	0.922	0.813	1.08	1.04	0.999	1.12	1.06
NCI-H2023	0.821	1.1	1.08	1	1.04	1.06	1.12	0.942	1.02	1.1	0.958	1	0.907	0.899
NCI-H2085	1.09		1.01	0.983	0.944	0.96	0.958	0.935	0.861	0.987	0.991	1.02	1.03	0.976
NCI-H2087	1	1.12	0.996	0.96	0.988	1.01	0.916	0.92	0.711	1.19	0.969	1.25	1.09	0.916
NCI-H2126	0.944	0.969	1.06	1.02	1.06	0.999	0.994	0.889	1.1	1.01	1.08	1.03	0.983	0.893
NCI-H2170	0.834	0.978	0.939	0.984	1.1	0.992	1	0.926	0.936	1.11	0.96	0.992	0.977	0.887
NCI-H2228	0.921	1.17	0.983	1.07	1.17	1.05	1.13	1.03	0.814	1.19	0.853	1.02	1.06	0.864
NCI-H2342	0.919	0.965	1.03	1.16	1.03	1.06	1.04	1.21	0.927	1.09	1.09	0.945	0.845	0.959
